Assay results from ChEMBL document CHEMBL1150003, “Chiral carbocylic nucleosides: The synthesis and antiviral activity of 4-hydroxy and 4-fluorocarbocyclic - 2- deoxyguanosines” (1993).
Values after ≈ are worked out from the molar mass of the structure shown.

Experiments:
Format in all cases: functional
Settings in all cases: Chlorocebus sabaeus, read-out: ID50 (the source's name)
Vero [1] = assay: Tested for the cytotoxic effect in vero cell monolayers after incubation for 48 hr at 37 degree Centigrade
Vero [2] = assay: Tested for the concentration required to inhibit HSV-1 strain KOS cytopathic effect by 50% in vero cells
Vero [3] = assay: Tested for the concentration required to inhibit HSV-2 strain 186 cytopathic effect by 50% in vero cells

Row | Compound | IC50 (Vero [1]) [µg/mL] | IC50 (Vero [2]) [µg/mL] | IC50 (Vero [3]) [µg/mL]
1 | Nc1nc(O)c2ncn(C3CC(O)C(F)(CO)C3)c2n1 (stereo not given) | 100 (≈ 353 µM) | 0.15 (≈ 0.53 µM) | 0.36 (≈ 1.27 µM)
2 | Nc1nc(O)c2ncn([C@H]3C[C@H](O)[C@@](O)(CO)C3)c2n1 | > 900 | 0.15 (≈ 0.533 µM) | 0.26 (≈ 0.924 µM)
3 | Nc1nc2c(ncn2COCCO)c(=O)[nH]1 [ACYCLOVIR] | > 300 | 0.2 (≈ 0.888 µM) | 0.6 (≈ 2.66 µM)
4 | Nc1nc(O)c2ncn([C@@H]3C[C@H](CO)[C@@H](O)C3)c2n1 | 300 (≈ 1130 µM) | 0.06 (≈ 0.226 µM) | 0.44 (≈ 1.66 µM)
5 | Nc1nc(O)c2ncn([C@H]3C[C@H](O)[C@](O)(CO)C3)c2n1 | > 300 | 70 (≈ 249 µM) | 65 (≈ 231 µM)
